Measurements published in US4175125A, “Method for treating methicillin resistant staphylococcus aureus” (Eli Lilly and Company, priority 1978, dated 1979).
Converted amounts (≈) assume the structure as drawn.

How the values were obtained:
[1] = system: Staphylococcus aureus cultures; assay: Agar dilution susceptibility test, phenylthioacetyl cephalosporins vs methicillin resistant S. aureus (Example 9); type: cell-based; details: Staphylococcus aureus
Source text: This example compares the antibiotic activities of three known compounds, methicillin, cephalothin, and cephaloridine, with three compounds from the above examples, in terms of minimum inhibitory concentration (MIC) values in microgram/milliliter units against various isolates of Staphylococcus aureus cultures. The culture numbers and the procedures used to obtain the reported data are disclosed by W. E. Wick and D. A. Preston in their article "Heterogeneous Methicillin-Resistant Staphylococcus Aureus" which appeared in Progress in Antimicrobial And Anticancer Chemotherapy, Proceedings of the 6th International Congress of Chemotherapy, Volume, 1, U. of Tokyo Press, Tokyo, (1970). In these agardilution susceptibility tests, the inocula were diluted to 10^3 bacteria per spot. Cultures 3055 (benzylpenicillin sensitive) and H232 (benzylpenicillin-resistant) are controls. The remaining cultures are methicillin-resistant, and, except for 3136, are clinical isolates. Culture 3136 is a 4th transfer laboratory selected mutant.

[2] = system: Staphylococcus aureus cultures; assay: Broth dilution MIC in trypticase soy broth, low and high NaCl (Example 10); type: cell-based; details: for MIC: Staphylococcus aureus, TSB
Protocol: This example compares the antibiotic activities of methicillin, cephalothin and cephaloridine with the compounds of Examples 1, 2 and 3, in broth dilution tests. The MIC values, in μg/ml., are against the same Staphylococcus aureus cultures described in Example 9, except that in this example the cultures were grown in trypticase soy broth (TSB). Growing the cultures in two broth cultures, one having a low (0.5 percent) sodium chloride content and one having a high (5.0 percent) sodium chloride content is said to assist in identifying the methicillin-resistant cultures from those which are not methicillin-resistant. […] See Chabbert, Y. A., 1967 Postgrad. Med. J., 43 (suppl); 40-46. One expects that similar changes in MIC values for this type of culture to other β-lactam antibiotics, e.g., various penicillins and cephalosporins, to have similar implications. […] That is, methicillin-resistant S.aureus cultures are susceptible to the cephalosporin antibiotics used in this invention.

[3] = culture 3131, table part marked b, read-out: MIC
[4] = culture 3131, table part marked c, read-out: MIC
[5] = culture 3135, table part marked b, read-out: MIC
[6] = culture 3135, table part marked c, read-out: MIC
[7] = culture 3136, table part marked b, read-out: MIC
[8] = culture 3136, table part marked c, read-out: MIC
[9] = culture 3137, table part marked b, read-out: MIC
[10] = culture 3137, table part marked c, read-out: MIC
[11] = culture 3138, table part marked b, read-out: MIC
[12] = culture 3138, table part marked c, read-out: MIC
[13] = culture 3139, table part marked b, read-out: MIC
[14] = culture 3139, table part marked c, read-out: MIC
[15] = culture (Seattle) 966, table part marked b, read-out: MIC
[16] = culture (Seattle) 966, table part marked c, read-out: MIC
[17] = culture S61, table part marked b, read-out: MIC
[18] = culture S61, table part marked c, read-out: MIC
[19] = culture 3130, table part marked b
[20] = culture 3130, table part marked c
[21] = culture 3131, table part marked b
[22] = culture 3131, table part marked c
[23] = culture 3134, table part marked b
[24] = culture 3134, table part marked c
[25] = culture 3135, table part marked b
[26] = culture 3135, table part marked c
[27] = culture 3136, table part marked b
[28] = culture 3136, table part marked c
[29] = culture 3137, table part marked b
[30] = culture 3137, table part marked c
[31] = culture 3138, table part marked b
[32] = culture 3138, table part marked c
[33] = culture 3139, table part marked b
[34] = culture 3139, table part marked c
[35] = culture (Seattle) 966, table part marked b
[36] = culture (Seattle) 966, table part marked c
[37] = culture S61, table part marked b
[38] = culture S61, table part marked c

O=C(Cc1cccs1)N[C@@H]1C(=O)N2C(C(=O)[O-])=C(C[n+]3ccccc3)CS[C@H]12 [Cephaloridine, cephaloridine, reference compound]
MIC ([1]; culture 3055 (control, benzylpenicillin sensitive), table part marked b, read-out: MIC): < 0.06 µg/mL | MIC ([1]; culture 3055 (control, benzylpenicillin sensitive), table part marked c, read-out: MIC): 0.25 µg/mL (≈ 0.602 µM) | MIC ([1]; culture 3130, table part marked b, read-out: MIC): 4 µg/mL (≈ 9.63 µM) | MIC ([1]; culture 3130, table part marked c, read-out: MIC): 8 µg/mL (≈ 19.3 µM) | MIC [1, 3]: 1 µg/mL (≈ 2.41 µM) | MIC [1, 4]: 16 µg/mL (≈ 38.5 µM) | MIC ([1]; culture 3132, table part marked b, read-out: MIC): 2 µg/mL (≈ 4.81 µM) | MIC ([1]; culture 3132, table part marked c, read-out: MIC): 2 µg/mL (≈ 4.81 µM) | MIC ([1]; culture 3133, table part marked b, read-out: MIC): 4 µg/mL (≈ 9.63 µM) | MIC ([1]; culture 3133, table part marked c, read-out: MIC): 16 µg/mL (≈ 38.5 µM) | MIC ([1]; culture 3134, table part marked b, read-out: MIC): 8 µg/mL (≈ 19.3 µM) | MIC ([1]; culture 3134, table part marked c, read-out: MIC): 16 µg/mL (≈ 38.5 µM) | MIC [1, 5]: 1 µg/mL (≈ 2.41 µM) | MIC [1, 6]: 8 µg/mL (≈ 19.3 µM) | MIC [1, 7]: 0.25 µg/mL (≈ 0.602 µM) | MIC [1, 8]: 16 µg/mL (≈ 38.5 µM) | MIC [1, 9]: 8 µg/mL (≈ 19.3 µM) | MIC [1, 10]: 32 µg/mL (≈ 77 µM) | MIC [1, 11]: 8 µg/mL (≈ 19.3 µM) | MIC [1, 12]: 16 µg/mL (≈ 38.5 µM) | MIC [1, 13]: 1 µg/mL (≈ 2.41 µM) | MIC [1, 14]: 4 µg/mL (≈ 9.63 µM) | MIC [1, 15]: 0.25 µg/mL (≈ 0.602 µM) | MIC [1, 16]: 0.25 µg/mL (≈ 0.602 µM) | MIC ([1]; culture H232 (control, benzylpenicillin-resistant), table part marked b, read-out: MIC): < 0.06 µg/mL | MIC ([1]; culture H232 (control, benzylpenicillin-resistant), table part marked c, read-out: MIC): < 0.06 µg/mL | MIC ([1]; culture Kavarmark 1138501, table part marked b, read-out: MIC): 1 µg/mL (≈ 2.41 µM) | MIC ([1]; culture Kavarmark 1138501, table part marked c, read-out: MIC): 4 µg/mL (≈ 9.63 µM) | MIC [1, 17]: 4 µg/mL (≈ 9.63 µM) | MIC [1, 18]: 16 µg/mL (≈ 38.5 µM) | MIC [2, 3]: 2 µg/mL (≈ 4.81 µM) | MIC [2, 4]: 16 µg/mL (≈ 38.5 µM) | MIC ([2]; culture 3132 (first column so headed), table part marked b, read-out: MIC): 2 µg/mL (≈ 4.81 µM) | MIC ([2]; culture 3132 (first column so headed), table part marked c, read-out: MIC): 16 µg/mL (≈ 38.5 µM) | MIC ([2]; culture 3132 (second column so headed), table part marked b, read-out: MIC): 1 µg/mL (≈ 2.41 µM) | MIC ([2]; culture 3132 (second column so headed), table part marked c, read-out: MIC): 16 µg/mL (≈ 38.5 µM) | MIC [2, 5]: 2 µg/mL (≈ 4.81 µM) | MIC [2, 6]: 16 µg/mL (≈ 38.5 µM) | MIC [2, 7]: < 0.5 µg/mL | MIC [2, 8]: 16 µg/mL (≈ 38.5 µM) | MIC [2, 9]: 8 µg/mL (≈ 19.3 µM) | MIC [2, 10]: 32 µg/mL (≈ 77 µM) | MIC [2, 11]: 4 µg/mL (≈ 9.63 µM) | MIC [2, 12]: 16 µg/mL (≈ 38.5 µM) | MIC [2, 13]: 1 µg/mL (≈ 2.41 µM) | MIC [2, 14]: 8 µg/mL (≈ 19.3 µM) | MIC [2, 15]: 4 µg/mL (≈ 9.63 µM) | MIC [2, 16]: 8 µg/mL (≈ 19.3 µM) | MIC ([2]; culture Kavarnick 1138501, table part marked b, read-out: MIC): 2 µg/mL (≈ 4.81 µM) | MIC ([2]; culture Kavarnick 1138501, table part marked c, read-out: MIC): 16 µg/mL (≈ 38.5 µM) | MIC [2, 17]: 4 µg/mL (≈ 9.63 µM) | MIC [2, 18]: 64 µg/mL (≈ 154 µM) | MIC ([2]; culture S, table part marked b, read-out: MIC): 4 µg/mL (≈ 9.63 µM) | MIC ([2]; culture S, table part marked c, read-out: MIC): 16 µg/mL (≈ 38.5 µM)

CC(=O)OCC1=C(C(=O)O)N2C(=O)[C@@H](NC(=O)Cc3cccs3)[C@H]2SC1 [Cephalothin, cephalothin, reference compound]
MIC ([1]; culture 3055 (control, benzylpenicillin sensitive), table part marked b): < 0.25 µg/mL | MIC ([1]; culture 3055 (control, benzylpenicillin sensitive), table part marked c): < 0.25 µg/mL | MIC [1, 19]: 8 µg/mL (≈ 20.2 µM) | MIC [1, 20]: 64 µg/mL (≈ 161 µM) | MIC [1, 21]: 1 µg/mL (≈ 2.52 µM) | MIC [1, 22]: 32 µg/mL (≈ 80.7 µM) | MIC ([1]; culture 3132, table part marked b): 2 µg/mL (≈ 5.04 µM) | MIC ([1]; culture 3132, table part marked c): 16 µg/mL (≈ 40.4 µM) | MIC ([1]; culture 3133, table part marked b): 2 µg/mL (≈ 5.04 µM) | MIC ([1]; culture 3133, table part marked c): 64 µg/mL (≈ 161 µM) | MIC [1, 23]: 8 µg/mL (≈ 20.2 µM) | MIC [1, 24]: 64 µg/mL (≈ 161 µM) | MIC [1, 25]: 2 µg/mL (≈ 5.04 µM) | MIC [1, 26]: 32 µg/mL (≈ 80.7 µM) | MIC [1, 27]: 2 µg/mL (≈ 5.04 µM) | MIC [1, 28]: 32 µg/mL (≈ 80.7 µM) | MIC [1, 29]: 64 µg/mL (≈ 161 µM) | MIC [1, 30]: 128 µg/mL (≈ 323 µM) | MIC [1, 31]: 8 µg/mL (≈ 20.2 µM) | MIC [1, 32]: 64 µg/mL (≈ 161 µM) | MIC [1, 33]: 1 µg/mL (≈ 2.52 µM) | MIC [1, 34]: 32 µg/mL (≈ 80.7 µM) | MIC [1, 35]: 1 µg/mL (≈ 2.52 µM) | MIC [1, 36]: 32 µg/mL (≈ 80.7 µM) | MIC ([1]; culture H232 (control, benzylpenicillin-resistant), table part marked b): < 0.25 µg/mL | MIC ([1]; culture H232 (control, benzylpenicillin-resistant), table part marked c): < 0.25 µg/mL | MIC ([1]; culture Kavarmark 1138501, table part marked b): 2 µg/mL (≈ 5.04 µM) | MIC ([1]; culture Kavarmark 1138501, table part marked c): 32 µg/mL (≈ 80.7 µM) | MIC [1, 37]: 2 µg/mL (≈ 5.04 µM) | MIC [1, 38]: 64 µg/mL (≈ 161 µM) | difference in MIC values in low versus high salt TSB cultures ([2]; 0.5 percent vs 5.0 percent NaCl, methicillin-resistant S. aureus): fairly wide difference (increase in MIC value from 2 to 64) | MIC ([2]; culture 3055 (control), table part marked b): 0.5 µg/mL (≈ 1.26 µM) | MIC ([2]; culture 3055 (control), table part marked c): 0.5 µg/mL (≈ 1.26 µM) | MIC [2, 19]: 8 µg/mL (≈ 20.2 µM) | MIC [2, 20]: 64 µg/mL (≈ 161 µM) | MIC [2, 21]: 2 µg/mL (≈ 5.04 µM) | MIC [2, 22]: 64 µg/mL (≈ 161 µM) | MIC ([2]; culture 3132 (first column so headed), table part marked b): 2 µg/mL (≈ 5.04 µM) | MIC ([2]; culture 3132 (first column so headed), table part marked c): 64 µg/mL (≈ 161 µM) | MIC ([2]; culture 3132 (second column so headed), table part marked b): 2 µg/mL (≈ 5.04 µM) | MIC ([2]; culture 3132 (second column so headed), table part marked c): 64 µg/mL (≈ 161 µM) | MIC [2, 23]: 32 µg/mL (≈ 80.7 µM) | MIC [2, 24]: 64 µg/mL (≈ 161 µM) | MIC [2, 25]: 2 µg/mL (≈ 5.04 µM) | MIC [2, 26]: 64 µg/mL (≈ 161 µM) | MIC [2, 27]: 2 µg/mL (≈ 5.04 µM) | MIC [2, 28]: 64 µg/mL (≈ 161 µM) | MIC [2, 29]: 64 µg/mL (≈ 161 µM) | MIC [2, 30]: 128 µg/mL (≈ 323 µM) | MIC [2, 31]: 32 µg/mL (≈ 80.7 µM) | MIC [2, 32]: 64 µg/mL (≈ 161 µM) | MIC [2, 33]: 4 µg/mL (≈ 10.1 µM) | MIC [2, 34]: 32 µg/mL (≈ 80.7 µM) | MIC [2, 35]: 2 µg/mL (≈ 5.04 µM) | MIC [2, 36]: 32 µg/mL (≈ 80.7 µM) | MIC ([2]; culture H232 (control), table part marked b): 0.5 µg/mL (≈ 1.26 µM) | MIC ([2]; culture H232 (control), table part marked c): 0.5 µg/mL (≈ 1.26 µM) | MIC ([2]; culture Kavarnick 1138501, table part marked b): 4 µg/mL (≈ 10.1 µM) | MIC ([2]; culture Kavarnick 1138501, table part marked c): 64 µg/mL (≈ 161 µM) | MIC [2, 37]: 8 µg/mL (≈ 20.2 µM) | MIC [2, 38]: 64 µg/mL (≈ 161 µM) | MIC ([2]; culture S, table part marked b): 8 µg/mL (≈ 20.2 µM) | MIC ([2]; culture S, table part marked c): 64 µg/mL (≈ 161 µM)
